Test results: PubChem BioAssay (NCI)
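Grown in 96-well plates, cells were treated for 48 hours with each compound at five concentrations. Insufficient inhibition: endpoint recorded as highest concentration tested. TGI marks complete inhibition of growth.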

Legend:
Experiment in all cases: inhibition of tumour cell growth, NCI panel, 48 h
[1] = system: 786-0 renal
[2] = system: A498 renal
[3] = system: A549 NSCLC
[4] = system: ACHN renal
[5] = system: BT-549 breast
[6] = system: CAKI-1 renal
[7] = system: CCRF-CEM leukemia
[8] = system: COLO 205 colon
[9] = system: DU-145 prostate
[10] = system: EKVX NSCLC
[11] = system: HCC-2998 colon
[12] = system: HCT-116 colon
[13] = system: HCT-15 colon
[14] = system: HL-60(TB) leukemia
[15] = system: HOP-62 NSCLC
[16] = system: HOP-92 NSCLC
[17] = system: HS 578T breast
[18] = system: HT29 colon
[19] = system: IGROV1 ovarian
[20] = system: K-562 leukemia
[21] = system: KM12 colon
[22] = system: LOX IMVI melanoma
[23] = system: M14 melanoma
[24] = system: MALME-3M melanoma
[25] = system: MCF7 breast
[26] = system: MDA-MB-231 breast
[27] = system: MDA-MB-435
[28] = system: MDA-N
[29] = system: MOLT-4 leukemia
[30] = system: NCI-H226 lung
[31] = system: NCI-H23 lung
[32] = system: NCI-H460 lung
[33] = system: NCI-H522 lung
[34] = system: NCI/ADR-RES ovarian
[35] = system: OVCAR-3 ovarian
[36] = system: OVCAR-4 ovarian
[37] = system: OVCAR-5 ovarian
[38] = system: OVCAR-8 ovarian
[39] = system: PC-3 prostate
[40] = system: RPMI-8226 leukemia
[41] = system: RXF 393 renal
[42] = system: SF-268 CNS
[43] = system: SF-295 CNS
[44] = system: SF-539 CNS
[45] = system: SK-MEL-2 melanoma
[46] = system: SK-MEL-28 melanoma
[47] = system: SK-MEL-5 melanoma
[48] = system: SK-OV-3 ovarian
[49] = system: SN12C renal
[50] = system: SNB-75 CNS
[51] = system: SR leukemia
[52] = system: SW-620 colon
[53] = system: T-47D breast
[54] = system: TK-10 renal
[55] = system: U251 CNS
[56] = system: UACC-257 melanoma
[57] = system: UO-31 renal

Measured: TGI

COc1cccc(N=Cc2cc(OC)c(OC)c(OC)c2)c1
> 100 µM: [1] | [2] | [3] | [4] | [5] | [6] | [7] | [8] | [9] | [10] | [11] | [12] | [13] | [14] | [15] | [16] | [17] | [18] | [19] | [20] | [21] | [22] | [23] | [24] | [25] | [26] | [27] | [28] | [29] | [30] | [31] | [32] | [33] | [34] | [35] | [36] | [37] | [38] | [39] | [40] | [41] | [42] | [43] | [44] | [45] | [46] | [47] | [48] | [49] | [50] | [51] | [52] | [53] | [54] | [55] | [56] | [57]
